In patent publication EP3839043A1, “SCREENING METHODS FOR COMPOUNDS MODULATING POLYAMINE TRANSPORT” (Katholieke Universiteit Leuven, priority 2019, dated 2021):
Marks after values point to notes of the source that are not given here.

Tests used:
Microsomal ATP13A2 = target: T1, Microsomal ATP13A2 (Homo sapiens, UniProt Q9NQ11); assay: ATPase assay (ADP-Glo Max), solubilized microsomes of SH-SY5Y cells overexpressing ATP13A2 WT; format: biochemical; details: for ATPase activity of ATP13A2 WT, screen for candidate substrates: 100 nM CaCl2, MnCl2, ZnCl2 or FeCl3, 100 µM SPD or SPM; for Vmax ± SEM: Microsomal ATP13A2; for ATPase activity of ATP13A2, dose-response: indicated doses, microsomes 5 µg
T1 construct: expressed in transfected cells; host or cells: SH-SY5Y human neuroblastoma cells, lentiviral transduction; microsomes solubilised with DDM
T1 sequence (Q9NQ11 1-1175 isoform Q9NQ11-3): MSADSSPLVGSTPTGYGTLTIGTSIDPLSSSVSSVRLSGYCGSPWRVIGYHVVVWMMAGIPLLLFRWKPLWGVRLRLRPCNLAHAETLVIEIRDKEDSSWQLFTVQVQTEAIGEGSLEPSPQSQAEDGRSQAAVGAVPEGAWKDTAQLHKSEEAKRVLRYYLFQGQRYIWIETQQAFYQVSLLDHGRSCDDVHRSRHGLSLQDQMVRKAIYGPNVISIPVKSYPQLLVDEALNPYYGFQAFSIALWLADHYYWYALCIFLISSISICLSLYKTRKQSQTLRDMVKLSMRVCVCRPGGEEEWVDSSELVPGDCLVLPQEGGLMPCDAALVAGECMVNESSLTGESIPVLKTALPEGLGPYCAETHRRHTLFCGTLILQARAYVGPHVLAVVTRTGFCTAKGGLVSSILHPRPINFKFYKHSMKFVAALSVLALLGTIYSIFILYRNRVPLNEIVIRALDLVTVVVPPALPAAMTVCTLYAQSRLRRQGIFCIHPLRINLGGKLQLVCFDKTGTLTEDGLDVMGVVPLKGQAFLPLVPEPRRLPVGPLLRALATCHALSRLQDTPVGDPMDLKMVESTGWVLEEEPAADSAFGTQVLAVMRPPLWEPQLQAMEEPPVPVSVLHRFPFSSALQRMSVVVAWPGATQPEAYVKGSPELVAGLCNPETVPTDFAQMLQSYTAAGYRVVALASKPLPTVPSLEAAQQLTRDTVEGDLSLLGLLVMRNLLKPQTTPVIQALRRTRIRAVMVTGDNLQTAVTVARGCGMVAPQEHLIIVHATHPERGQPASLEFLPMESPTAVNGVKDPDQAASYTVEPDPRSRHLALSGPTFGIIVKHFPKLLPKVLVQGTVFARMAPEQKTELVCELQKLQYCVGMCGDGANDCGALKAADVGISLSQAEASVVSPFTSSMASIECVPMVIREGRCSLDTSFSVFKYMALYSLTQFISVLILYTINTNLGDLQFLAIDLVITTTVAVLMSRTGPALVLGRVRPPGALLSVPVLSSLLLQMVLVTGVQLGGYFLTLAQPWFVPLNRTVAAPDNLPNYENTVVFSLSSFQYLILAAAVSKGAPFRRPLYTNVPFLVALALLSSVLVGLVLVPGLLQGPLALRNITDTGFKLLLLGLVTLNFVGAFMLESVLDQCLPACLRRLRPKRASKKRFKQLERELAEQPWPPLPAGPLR
Description: (§1) Membrane fractionation - Transduced SH-SY5Y cells were seeded in […] at a density of 6 x 10^6 cells per plate. 24 h later, the cells were harvested following trypsinization and brief centrifugation (300 x g, 5 min). Subcellular fractionation was performed by differential centrifugation. The microsomal protein concentration was measured using the bicinchoninic acid assay (Thermo Fischer Scientific, Pierce) according to the manufacturer's instructions.
ATPase assay - The ATPase activity of ATP13A2 was assessed using a commercially available luminescence assay (ADP-Glo Max assay, Promega) that monitors the production of ADP via luciferase activity. The reactions were performed for 30 min (37°C) in a final volume of 25 µl. […] The assay was started by the addition of 5 mM ATP and was terminated by adding 25 µl of ADP-Glo Reagent. The 96-well plate was then incubated for 40 min at room temperature, followed by the addition of 50 µl of ADP-Glo Max Detection Reagent. After 40 min, luminescence was detected using a FlexStation 3.0 system (Molecular Devices). Dose-response curves and n/Km/Vmax values were calculated using GraphPad Prism Software (GraphPad Software Inc.).

cathepsin D (CTSD) = details: toxic SPM levels (10 µM, 4 h)
Description: (§2) Cathepsin activity assays - SH-SY5Y cells were seeded in 10 cm^2 plates (2 X 10^6 cells per plate) and allowed to adhere overnight prior to treatment with 10 µM SPM for 4 h at 37°C. For samples requiring acidic nanoparticle addition, 180 ng/ml nanoparticles were added 1 h prior to SPM addition. Next, the samples were harvested using TRYPLE and a brief centrifugation (300 x g; 5 min). CTSB (ab65300) and CTSD (ab65302) activities were assessed using commercially available kits (Abcam) according to the manufacturer's instructions. MFI were acquired using a FlexStation 3.0 multi-well plate reader (Molecular Devices).

cathepsin B (CTSB) = details: toxic SPM levels (10 µM, 4 h)
Description: as §2

SH-SY5Y cells [1] = details: KO and KO/D508N cells; SPM 10 µM, 4 h
Description: BODIPY-SPM localization and lysosomal rupture analysis - For all immunofluorescent stainings SH-SY5Y cell lines were seeded in 12-well plates (0.25 X 10^5 cells per well on coverslips) and the next day, the cells were incubated with the indicated compounds for 4 h at 37°C. For BODIPY-SPM analysis, cells were pulsed with 5 µM SPM for 15 min, washed and chased in fresh media for a further 1 h and 45 min at 37°C. Following treatments, the cells were washed twice in PBS, fixed in 4% paraformaldehyde for 30 min (37°C), washed in PBS and stored at 4°C. For immunofluorescence staining, the cells were washed in PBS containing 0.5% Tween 20 (PBS-T), permeabilized in PBS containing 0.1% Triton X-100 (30 min) and blocked first in 0.1 M glycine and then in PBS-T containing 1% fetal calf serum and 10% BSA. Gal-3-, LAMP1- and cathepsin B-specific antibodies were used at a dilution of 1:100-200 (in PBS-T containing 1% BSA) overnight at 4°C. Subsequently, the samples were washed and incubated with Alexa Fluor™ secondary antibody (1:1,000, 30 min). To assess FITC-dextran release, cells were loaded with 50 µg/ml FITC-dextran for 72 h, cells were then washed and placed in fresh media for 1 h prior to SPM (10 µM) addition. To visualize the nucleus, all samples were stained with DAPI. […]

SH-SY5Y cells [2] = test system: SH-SY5Y cells
Description: PI exclusion assay - Cells were seeded in 12-well plates (1.0 X 10^5 cells per well) and the next day, the cells were treated with increasing doses of SPM, alone or in combination with the CTSB inhibitor CA-074 (25 µM, 1 h pre-incubation) or acidic nanoparticles (180 ng/ml, 1 h pre-incubation), and incubated for 24 h at 37°C. Thereafter, the cells were harvested following trypsinization and a brief centrifugation (300 x g; 5 min), washed with PBS and stained with 1 µg/ml PI (in PBS containing 1% BSA). An Attune Nxt (Thermo Fischer Scientific) flow cytometer was used to determine the proportion of PI-positive cells (10,000 events per treatment).

SH-SY5Y cells [3] = details: KO and KO/D508N cells; 10 µM SPM, 4 h
Description: FITC-dextran based lysosomal pH - SH-SY5Y cells were seeded in 12-well plates (1.0 X 10^5 cells per well) and allowed to adhere overnight. Cells were exposed to 50 µg/ml FITC-dextran for 72 h. Samples were then washed, placed in fresh media and treated with SPM (10 µM) alone or in combination with acidic nanoparticles (180 ng/ml, 1 h pre-incubation) for 4 h. Samples were then collected by centrifugation (450 x g, 5 min) and washed in PBS. Cells were finally resuspended in 500 µl of PBS containing 1% BSA and FITC dual emission assessed by flow cytometry (excitation 488 nm, emission 530 (BL1) and 600 (BL2)) using an Attune NXT flow cytometer (Invitrogen). The emission (BL1/BL2) of all samples were compared to a standard curve, whereby signals were obtained from control cells resuspended in monensin (100 µM) containing Britton Robinson buffer with increasing pH (3.0-8.0).

D508N mutant = D508N mutant (Homo sapiens, UniProt Q9NQ11, D513N); details: 100 µM SPM
D508N mutant, sequence (Q9NQ11 1-1175 isoform Q9NQ11-3 D508N): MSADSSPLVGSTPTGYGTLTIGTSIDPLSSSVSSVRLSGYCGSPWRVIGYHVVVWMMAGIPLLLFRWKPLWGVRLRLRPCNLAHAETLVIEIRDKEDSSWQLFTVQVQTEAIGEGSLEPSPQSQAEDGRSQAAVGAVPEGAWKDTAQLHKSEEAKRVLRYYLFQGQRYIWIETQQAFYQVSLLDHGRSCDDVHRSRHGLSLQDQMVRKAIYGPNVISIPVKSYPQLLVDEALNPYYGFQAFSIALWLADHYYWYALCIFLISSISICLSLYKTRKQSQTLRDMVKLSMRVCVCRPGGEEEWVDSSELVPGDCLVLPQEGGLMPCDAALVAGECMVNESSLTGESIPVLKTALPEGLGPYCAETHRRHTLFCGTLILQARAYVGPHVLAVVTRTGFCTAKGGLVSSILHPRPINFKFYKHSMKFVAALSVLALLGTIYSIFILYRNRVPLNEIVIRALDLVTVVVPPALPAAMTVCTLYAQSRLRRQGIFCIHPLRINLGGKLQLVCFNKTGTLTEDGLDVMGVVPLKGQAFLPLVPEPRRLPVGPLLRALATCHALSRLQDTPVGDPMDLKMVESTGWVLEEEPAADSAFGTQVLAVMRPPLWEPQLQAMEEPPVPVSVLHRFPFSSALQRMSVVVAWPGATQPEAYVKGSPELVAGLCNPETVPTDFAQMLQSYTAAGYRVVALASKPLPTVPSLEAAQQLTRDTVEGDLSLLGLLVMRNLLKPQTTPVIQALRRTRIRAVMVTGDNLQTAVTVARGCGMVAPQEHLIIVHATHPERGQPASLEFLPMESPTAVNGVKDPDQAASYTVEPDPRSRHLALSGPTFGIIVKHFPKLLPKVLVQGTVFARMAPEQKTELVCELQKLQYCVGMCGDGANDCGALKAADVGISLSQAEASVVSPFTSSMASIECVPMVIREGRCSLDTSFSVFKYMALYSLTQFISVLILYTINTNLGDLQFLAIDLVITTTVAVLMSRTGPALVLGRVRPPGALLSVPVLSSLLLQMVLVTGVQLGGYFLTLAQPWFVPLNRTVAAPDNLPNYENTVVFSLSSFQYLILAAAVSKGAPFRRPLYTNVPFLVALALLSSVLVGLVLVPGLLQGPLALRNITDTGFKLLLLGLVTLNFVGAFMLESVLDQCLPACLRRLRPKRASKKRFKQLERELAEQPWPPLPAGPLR
Description: as §1
ATPase assay - The ATPase activity of ATP13A2 was assessed using a commercially available luminescence assay (ADP-Glo Max assay, Promega) that monitors the production of ADP via luciferase activity. The reactions were performed for 30 min (37°C) in a final volume of 25 µl. The assay reaction mixture contained 50 mM MOPS-KOH (pH 7), 100 mM KCI, 11 mM MgCl2, 1 mM DTT, 195 µM DDM, various concentrations of the indicated compound, and either microsomes (5 µg) harvested from SH-SY5Y cells overexpressing ATP13A2 (WT or mutants) or purified ATP13A2 (0.5 µg). When purified ATP13A2 was used, we included 125 µM PA, 125 µM PI(3,5)P2 and 19.5 µM DDM in the reaction buffer. […] After 40 min, luminescence was detected using a FlexStation 3.0 system (Molecular Devices). Dose-response curves and n/Km/Vmax values were calculated using GraphPad Prism Software (GraphPad Software Inc.).

| SMILES | ATPase activity of ATP13A2 WT, screen for candidate substrates (Microsomal ATP13A2) | Vmax ± SEM (Microsomal ATP13A2) | ATPase activity of ATP13A2, dose-response (Microsomal ATP13A2) | cathepsin D (CTSD) activity (cathepsin D (CTSD)) | cathepsin B (CTSB) activity (cathepsin B (CTSB)) | endogenous Gal-3 punctae (SH-SY5Y cells [1]) | cell death (SH-SY5Y cells [2]) | Hill coefficient of SPM-induced ATPase activity (Microsomal ATP13A2; microsomal ATP13A2 WT) | lysosomal pH (SH-SY5Y cells [3]) | ATPase activity of D508N mutant (D508N mutant) |
| --- | --- | --- | --- | --- | --- | --- | --- | --- | --- | --- |
| NCCCCNCCCN [Spermidine, spermidine] | significantly stimulated ATPase activity | ∼ 106* nmol ADP/mg/min | stimulate ATPase activity in a concentration-dependent manner |  |  |  |  |  |  |  |
| NCCCNCCCCNCCCN [Spermine, spermine] | significantly stimulated ATPase activity | 140 ± 6 nmol ADP/mg/min | stimulate ATPase activity in a concentration-dependent manner | decreased | increased | increased both the number and size | increase in cell death | approaches one | further increased | had no effect |
